{"source": "patent US12128132B2", "about": "“Drug delivery formulations” (MedinCell S.A., priority 2019, dated 2024)", "assay": "Stability of risperidone stock solution", "type": "physicochemical", "details": "200 μg/mL in acetonitrile/H2O (50/50 v/v), stored at +2-8° C.", "experimental": "Starting from this mother solution, calibration standards were prepared by dilution in the same sample solvent mixture as above. Six dilutions were performed to obtain calibration standards of 1, 5, 10, 25, 50, 100 and 200 μg/mL.", "data": [{"smiles": "Cc1nc2n(c(=O)c1CCN1CCC(c3noc4cc(F)ccc34)CC1)CCCC2", "note": "[risperidone]", "values": [{"measurement": "stability of stock solution", "result": "≥ 5", "unit": "months"}]}]}
